Measurements taken from the NIST ThermoML archive (doi:10.1021/je060271a).
Several values for one entry are separate records, joined by “and”; a condition that tells them apart may be missing. Equal entries are not always repeated. ± gives the expanded uncertainty stated by the source.

Conditions: Liquid, Vibrating tube method

CCCCCCCC(=O)OCC(COC(=O)CCCCCCC)(COC(=O)CCCCCCC)COC(=O)CCCCCCC [pentaerythritol tetraoctanoate]
Conditions	mass density
303.14 K, 4098.2 kPa	957.9 ± 1.2 kg/m3
303.14 K, 4118.3 kPa	957.9 ± 1.2 kg/m3
303.14 K, 4135.4 kPa	957.9 ± 1.2 kg/m3
303.14 K, 4156 kPa	957.9 ± 1.2 kg/m3
303.14 K, 4172.8 kPa	957.9 ± 1.2 kg/m3
303.14 K, 4194.3 kPa	958 ± 1.2 kg/m3
303.14 K, 4211.9 kPa	958 ± 1.2 kg/m3
303.14 K, 4232.9 kPa	958.1 ± 1.2 kg/m3
303.14 K, 4250 kPa	958 ± 1.2 kg/m3
303.14 K, 4271.5 kPa	958.1 ± 1.2 kg/m3
303.14 K, 4289.7 kPa	958 ± 1.2 kg/m3
303.14 K, 4414.6 kPa	958.1 ± 1.2 kg/m3
303.14 K, 4495.8 kPa	958.1 ± 1.2 kg/m3
303.14 K, 4506.9 kPa	958.2 ± 1.2 kg/m3
303.14 K, 4516.1 kPa	958.2 ± 1.2 kg/m3
303.14 K, 4528.5 kPa	958.3 ± 1.2 kg/m3
303.14 K, 4565.1 kPa	958.2 ± 1.2 kg/m3
303.14 K, 4883.3 kPa	958.4 ± 1.2 kg/m3
303.14 K, 4909.3 kPa	958.4 ± 1.2 kg/m3
303.14 K, 4931.2 kPa	958.5 ± 1.2 kg/m3
303.14 K, 4958.7 kPa	958.5 ± 1.2 kg/m3
303.14 K, 5309.4 kPa	958.7 ± 1.2 kg/m3
303.14 K, 5618.4 kPa	958.8 ± 1.2 kg/m3
303.14 K, 5650.1 kPa	958.8 ± 1.2 kg/m3
303.14 K, 5689.5 kPa	958.9 ± 1.2 kg/m3
303.14 K, 5713.9 kPa	959 ± 1.2 kg/m3
303.14 K, 5742.8 kPa	959 ± 1.2 kg/m3
303.14 K, 6420.5 kPa	959.2 ± 1.2 kg/m3
303.14 K, 6514.5 kPa	959.4 ± 1.2 kg/m3
303.14 K, 6535.9 kPa	959.5 ± 1.2 kg/m3
303.14 K, 6561.5 kPa	959.4 ± 1.2 kg/m3
303.14 K, 6885.2 kPa	959.7 ± 1.2 kg/m3
303.14 K, 6937.5 kPa	959.7 ± 1.2 kg/m3
303.14 K, 6965.9 kPa	959.7 ± 1.2 kg/m3
303.14 K, 6989.7 kPa	959.7 ± 1.2 kg/m3
303.14 K, 7018.5 kPa	959.7 ± 1.2 kg/m3
303.14 K, 7042.7 kPa	959.8 ± 1.2 kg/m3
303.14 K, 7072.4 kPa	959.8 ± 1.2 kg/m3
303.14 K, 7331.7 kPa	960 ± 1.2 kg/m3
303.14 K, 7358.2 kPa	959.8 ± 1.2 kg/m3
303.14 K, 7974.8 kPa	960.4 ± 1.2 kg/m3
303.14 K, 8046.4 kPa	960.3 ± 1.2 kg/m3
303.14 K, 8085.7 kPa	960.5 ± 1.2 kg/m3
303.14 K, 8120 kPa	960.5 ± 1.2 kg/m3
303.14 K, 8830.9 kPa	960.7 ± 1.2 kg/m3
303.14 K, 9313 kPa	961.2 ± 1.2 kg/m3
303.14 K, 9339.7 kPa	961.2 ± 1.2 kg/m3
303.14 K, 11022 kPa	962.1 ± 1.2 kg/m3
303.14 K, 11048 kPa	962.2 ± 1.2 kg/m3
303.14 K, 13652 kPa	963.7 ± 1.2 kg/m3
303.14 K, 13735 kPa	963.7 ± 1.2 kg/m3
303.14 K, 13777 kPa	963.7 ± 1.2 kg/m3
303.14 K, 13855 kPa	963.8 ± 1.2 kg/m3
303.14 K, 13898 kPa	963.8 ± 1.2 kg/m3
303.14 K, 14022 kPa	964 ± 1.2 kg/m3
303.15 K, 104.6 kPa	955.3 ± 1.2 kg/m3 and 955.4 ± 1.2 kg/m3
303.15 K, 104.7 kPa	955.5 ± 1.2 kg/m3 and 955.4 ± 1.2 kg/m3
303.15 K, 104.9 kPa	955.4 ± 1.2 kg/m3
303.15 K, 105.1 kPa	955.4 ± 1.2 kg/m3
303.15 K, 106.7 kPa	955.3 ± 1.2 kg/m3
303.15 K, 113.4 kPa	955.5 ± 1.2 kg/m3
303.15 K, 119.7 kPa	955.5 ± 1.2 kg/m3
303.15 K, 123.3 kPa	955.5 ± 1.2 kg/m3
303.15 K, 127.9 kPa	955.5 ± 1.2 kg/m3
303.15 K, 133.8 kPa	955.5 ± 1.2 kg/m3
303.15 K, 141.4 kPa	955.5 ± 1.2 kg/m3
303.15 K, 151 kPa	955.4 ± 1.2 kg/m3
303.15 K, 163.8 kPa	955.4 ± 1.2 kg/m3
303.15 K, 180.7 kPa	955.5 ± 1.2 kg/m3
303.15 K, 203.5 kPa	955.6 ± 1.2 kg/m3
303.15 K, 234.4 kPa	955.6 ± 1.2 kg/m3
303.15 K, 272.8 kPa	955.5 ± 1.2 kg/m3
303.15 K, 306.2 kPa	955.6 ± 1.2 kg/m3
303.15 K, 333.5 kPa	955.7 ± 1.2 kg/m3
303.15 K, 351.9 kPa	955.6 ± 1.2 kg/m3
303.15 K, 363.2 kPa	955.6 ± 1.2 kg/m3
303.15 K, 377.9 kPa	955.7 ± 1.2 kg/m3
303.15 K, 393.4 kPa	955.6 ± 1.2 kg/m3
303.15 K, 410.1 kPa	955.7 ± 1.2 kg/m3
303.15 K, 427 kPa	955.6 ± 1.2 kg/m3
303.15 K, 438.6 kPa	955.6 ± 1.2 kg/m3
303.15 K, 450.2 kPa	955.6 ± 1.2 kg/m3
303.15 K, 462.7 kPa	955.6 ± 1.2 kg/m3
303.15 K, 474.7 kPa	955.6 ± 1.2 kg/m3
303.15 K, 487.9 kPa	955.7 ± 1.2 kg/m3
303.15 K, 499.6 kPa	955.6 ± 1.2 kg/m3
303.15 K, 514.7 kPa	955.8 ± 1.2 kg/m3
303.15 K, 529.5 kPa	955.5 ± 1.2 kg/m3
303.15 K, 545.8 kPa	955.7 ± 1.2 kg/m3
303.15 K, 562.8 kPa	955.6 ± 1.2 kg/m3
303.15 K, 580.7 kPa	955.7 ± 1.2 kg/m3
303.15 K, 600.2 kPa	955.7 ± 1.2 kg/m3
303.15 K, 620 kPa	955.7 ± 1.2 kg/m3
303.15 K, 635.4 kPa	955.8 ± 1.2 kg/m3
303.15 K, 653.7 kPa	955.7 ± 1.2 kg/m3
303.15 K, 673.1 kPa	955.8 ± 1.2 kg/m3
303.15 K, 690.2 kPa	955.8 ± 1.2 kg/m3
303.15 K, 711.7 kPa	955.8 ± 1.2 kg/m3
303.15 K, 734 kPa	955.8 ± 1.2 kg/m3
303.15 K, 753.9 kPa	955.8 ± 1.2 kg/m3
303.15 K, 778.9 kPa	955.8 ± 1.2 kg/m3
303.15 K, 805.3 kPa	955.7 ± 1.2 kg/m3
303.15 K, 828.4 kPa	956 ± 1.2 kg/m3
303.15 K, 856.4 kPa	956 ± 1.2 kg/m3
303.15 K, 878.8 kPa	956 ± 1.2 kg/m3
303.15 K, 896.7 kPa	955.9 ± 1.2 kg/m3
303.15 K, 918.8 kPa	955.9 ± 1.2 kg/m3
303.15 K, 937.7 kPa	955.8 ± 1.2 kg/m3
303.15 K, 961.3 kPa	955.9 ± 1.2 kg/m3
303.15 K, 986.7 kPa	956 ± 1.2 kg/m3
303.15 K, 1012 kPa	956 ± 1.2 kg/m3
303.15 K, 1034.8 kPa	956.1 ± 1.2 kg/m3
303.15 K, 1062.9 kPa	956 ± 1.2 kg/m3
303.15 K, 1087.6 kPa	956.1 ± 1.2 kg/m3
303.15 K, 1118 kPa	956.1 ± 1.2 kg/m3
303.15 K, 1149.9 kPa	956 ± 1.2 kg/m3
303.15 K, 1183.3 kPa	956 ± 1.2 kg/m3
303.15 K, 1212.4 kPa	956.1 ± 1.2 kg/m3
303.15 K, 1248.7 kPa	956.1 ± 1.2 kg/m3
303.15 K, 1287.1 kPa	956.2 ± 1.2 kg/m3
303.15 K, 1320.4 kPa	956.1 ± 1.2 kg/m3
303.15 K, 1362.3 kPa	956.1 ± 1.2 kg/m3
303.15 K, 1407.7 kPa	956.3 ± 1.2 kg/m3
303.15 K, 1447.7 kPa	956.2 ± 1.2 kg/m3
303.15 K, 1500.9 kPa	956.2 ± 1.2 kg/m3
303.15 K, 1544.9 kPa	956.4 ± 1.2 kg/m3
303.15 K, 1600.2 kPa	956.4 ± 1.2 kg/m3
303.15 K, 1657.7 kPa	956.3 ± 1.2 kg/m3
303.15 K, 1716.5 kPa	956.4 ± 1.2 kg/m3
303.15 K, 1763.5 kPa	956.4 ± 1.2 kg/m3
303.15 K, 1789.9 kPa	956.6 ± 1.2 kg/m3
303.15 K, 1809.7 kPa	956.6 ± 1.2 kg/m3
303.15 K, 1826.2 kPa	956.5 ± 1.2 kg/m3
303.15 K, 1847 kPa	956.6 ± 1.2 kg/m3
303.15 K, 1864.2 kPa	956.5 ± 1.2 kg/m3
303.15 K, 1884.7 kPa	956.4 ± 1.2 kg/m3
303.15 K, 1906.9 kPa	956.5 ± 1.2 kg/m3
303.15 K, 1925.8 kPa	956.5 ± 1.2 kg/m3
303.15 K, 1948 kPa	956.5 ± 1.2 kg/m3
303.15 K, 1967.5 kPa	956.7 ± 1.2 kg/m3
303.15 K, 1990.5 kPa	956.6 ± 1.2 kg/m3
303.15 K, 2013.8 kPa	956.6 ± 1.2 kg/m3
303.15 K, 2034.1 kPa	956.6 ± 1.2 kg/m3
303.15 K, 2058.5 kPa	956.7 ± 1.2 kg/m3
303.15 K, 2083.2 kPa	956.6 ± 1.2 kg/m3
303.15 K, 2104.7 kPa	956.6 ± 1.2 kg/m3
303.15 K, 2130.4 kPa	956.7 ± 1.2 kg/m3
